Results from publication PMC5760531, “Action Potential Recording and Pro-arrhythmia Risk Analysis in Human Ventricular Trabeculae” (Frontiers in Physiology, 2018).

Tested on: human ventricular trabeculae
Test: Action potential recording and pro-arrhythmic score analysis in human ventricular trabeculae (hVT);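 also: sharp microelectrode action potential recordings at 37°C in Tyrode-perfused trabeculae, 4 cumulative concentrations each applied 31 min, values averaged over last 30 APs, vehicle 0.1% DMSO as control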
Settings: for Refractoriness Escape (raw data) / Beat Escape (raw data) / EADs (raw data): n=4 trabeculae

Nc1nnc(-c2cccc(Cl)c2Cl)c(N)n1 [LAMOTRIGINE, Lamotrigine]
Refractoriness Escape (raw data) (1Hz, 59-FOLD free ETPC (17µM)): 0
AMAX (average raw data) (2Hz, 0.6-FOLD free ETPC (17µM)): 97
AMAX percentage change compared to vehicle control (2Hz, 0.6-FOLD free ETPC (17µM)): -7%
APD30 (average raw data) (2Hz, 0.6-FOLD free ETPC (17µM)): 107
APD30 percentage change compared to vehicle control (2Hz, 0.6-FOLD free ETPC (17µM)): 2%
APD50 (average raw data) (2Hz, 0.6-FOLD free ETPC (17µM)): 149
APD50 percentage change compared to vehicle control (2Hz, 0.6-FOLD free ETPC (17µM)): 3%
APD90 (average raw data) (2Hz, 0.6-FOLD free ETPC (17µM)): 232
APD90 percentage change compared to vehicle control (2Hz, 0.6-FOLD free ETPC (17µM)): 2%
Alternans (average raw data) (2Hz, 0.6-FOLD free ETPC (17µM)): 0.95
Alternans percentage change compared to vehicle control (2Hz, 0.6-FOLD free ETPC (17µM)): -59%
Beat Escape percentage change compared to vehicle control (2Hz, 0.6-FOLD free ETPC (17µM)): 0%
EADs percentage change compared to vehicle control (2Hz, 0.6-FOLD free ETPC (17µM)): 0%
ERP (average raw data) (2Hz, 0.6-FOLD free ETPC (17µM)): 0.46
ERP percentage change compared to vehicle control (2Hz, 0.6-FOLD free ETPC (17µM)): 4%
Max Dispersion (average raw data) (2Hz, 0.6-FOLD free ETPC (17µM)): 6.98
Max Dispersion percentage change compared to vehicle control (2Hz, 0.6-FOLD free ETPC (17µM)): 7%
RMP (average raw data) (2Hz, 0.6-FOLD free ETPC (17µM)): -82
RMP percentage change compared to vehicle control (2Hz, 0.6-FOLD free ETPC (17µM)): -3%
Refractoriness Escape percentage change compared to vehicle control (2Hz, 0.6-FOLD free ETPC (17µM)): 0%
STV (average raw data) (2Hz, 0.6-FOLD free ETPC (17µM)): 0.58
Triangulation (average raw data) (2Hz, 0.6-FOLD free ETPC (17µM)): 124
Triangulation percentage change compared to vehicle control (2Hz, 0.6-FOLD free ETPC (17µM)): 2%
Beat Escape (raw data) (2Hz, 0.6-FOLD free ETPC (17µM)): 0
EADs (raw data) (2Hz, 0.6-FOLD free ETPC (17µM)): 0
Refractoriness Escape (raw data) (2Hz, 0.6-FOLD free ETPC (17µM)): 0
AMAX (average raw data) (2Hz, 6-FOLD free ETPC (17µM)): 103
AMAX percentage change compared to vehicle control (2Hz, 6-FOLD free ETPC (17µM)): -2%
APD30 (average raw data) (2Hz, 6-FOLD free ETPC (17µM)): 103
APD30 percentage change compared to vehicle control (2Hz, 6-FOLD free ETPC (17µM)): -1%
APD50 (average raw data) (2Hz, 6-FOLD free ETPC (17µM)): 139
APD50 percentage change compared to vehicle control (2Hz, 6-FOLD free ETPC (17µM)): -3%
APD90 (average raw data) (2Hz, 6-FOLD free ETPC (17µM)): 221
APD90 percentage change compared to vehicle control (2Hz, 6-FOLD free ETPC (17µM)): -3%
Alternans (average raw data) (2Hz, 6-FOLD free ETPC (17µM)): 4.34
Alternans percentage change compared to vehicle control (2Hz, 6-FOLD free ETPC (17µM)): 90%
Beat Escape percentage change compared to vehicle control (2Hz, 6-FOLD free ETPC (17µM)): 25%
EADs percentage change compared to vehicle control (2Hz, 6-FOLD free ETPC (17µM)): 0%
ERP (average raw data) (2Hz, 6-FOLD free ETPC (17µM)): 0.41
ERP percentage change compared to vehicle control (2Hz, 6-FOLD free ETPC (17µM)): -7%
Max Dispersion (average raw data) (2Hz, 6-FOLD free ETPC (17µM)): 10.50
Max Dispersion percentage change compared to vehicle control (2Hz, 6-FOLD free ETPC (17µM)): 62%
RMP (average raw data) (2Hz, 6-FOLD free ETPC (17µM)): -87
RMP percentage change compared to vehicle control (2Hz, 6-FOLD free ETPC (17µM)): 3%
Refractoriness Escape percentage change compared to vehicle control (2Hz, 6-FOLD free ETPC (17µM)): 0%
STV (average raw data) (2Hz, 6-FOLD free ETPC (17µM)): 2.93
Triangulation (average raw data) (2Hz, 6-FOLD free ETPC (17µM)): 117
Triangulation percentage change compared to vehicle control (2Hz, 6-FOLD free ETPC (17µM)): -4%
Beat Escape (raw data) (2Hz, 6-FOLD free ETPC (17µM)): 1
EADs (raw data) (2Hz, 6-FOLD free ETPC (17µM)): 0
Refractoriness Escape (raw data) (2Hz, 6-FOLD free ETPC (17µM)): 0
AMAX (average raw data) (2Hz, 18-FOLD free ETPC (17µM)): 85
AMAX percentage change compared to vehicle control (2Hz, 18-FOLD free ETPC (17µM)): -16%
APD30 (average raw data) (2Hz, 18-FOLD free ETPC (17µM)): 110
APD30 percentage change compared to vehicle control (2Hz, 18-FOLD free ETPC (17µM)): 4%
APD50 (average raw data) (2Hz, 18-FOLD free ETPC (17µM)): 139
APD50 percentage change compared to vehicle control (2Hz, 18-FOLD free ETPC (17µM)): -4%
APD90 (average raw data) (2Hz, 18-FOLD free ETPC (17µM)): 227
APD90 percentage change compared to vehicle control (2Hz, 18-FOLD free ETPC (17µM)): 2%
Alternans (average raw data) (2Hz, 18-FOLD free ETPC (17µM)): 34.70
Alternans percentage change compared to vehicle control (2Hz, 18-FOLD free ETPC (17µM)): 1417%
Beat Escape percentage change compared to vehicle control (2Hz, 18-FOLD free ETPC (17µM)): 100%
EADs percentage change compared to vehicle control (2Hz, 18-FOLD free ETPC (17µM)): 0%
ERP (average raw data) (2Hz, 18-FOLD free ETPC (17µM)): 0.33
ERP percentage change compared to vehicle control (2Hz, 18-FOLD free ETPC (17µM)): -25%
Max Dispersion (average raw data) (2Hz, 18-FOLD free ETPC (17µM)): 42.23
Max Dispersion percentage change compared to vehicle control (2Hz, 18-FOLD free ETPC (17µM)): 550%
RMP (average raw data) (2Hz, 18-FOLD free ETPC (17µM)): -90
RMP percentage change compared to vehicle control (2Hz, 18-FOLD free ETPC (17µM)): 10%
Refractoriness Escape percentage change compared to vehicle control (2Hz, 18-FOLD free ETPC (17µM)): 0%
STV (average raw data) (2Hz, 18-FOLD free ETPC (17µM)): 18.59
Triangulation (average raw data) (2Hz, 18-FOLD free ETPC (17µM)): 117
Triangulation percentage change compared to vehicle control (2Hz, 18-FOLD free ETPC (17µM)): -1%
Beat Escape (raw data) (2Hz, 18-FOLD free ETPC (17µM)): 4
EADs (raw data) (2Hz, 18-FOLD free ETPC (17µM)): 0
Refractoriness Escape (raw data) (2Hz, 18-FOLD free ETPC (17µM)): 0
AMAX (average raw data) (2Hz, 59-FOLD free ETPC (17µM)): 48
AMAX percentage change compared to vehicle control (2Hz, 59-FOLD free ETPC (17µM)): -52%
APD30 (average raw data) (2Hz, 59-FOLD free ETPC (17µM)): 106
APD30 percentage change compared to vehicle control (2Hz, 59-FOLD free ETPC (17µM)): 4%
APD50 (average raw data) (2Hz, 59-FOLD free ETPC (17µM)): 145
APD50 percentage change compared to vehicle control (2Hz, 59-FOLD free ETPC (17µM)): 7%
APD90 (average raw data) (2Hz, 59-FOLD free ETPC (17µM)): 268
APD90 percentage change compared to vehicle control (2Hz, 59-FOLD free ETPC (17µM)): 34%
Alternans (average raw data) (2Hz, 59-FOLD free ETPC (17µM)): 3.93
Alternans percentage change compared to vehicle control (2Hz, 59-FOLD free ETPC (17µM)): 72%
Beat Escape percentage change compared to vehicle control (2Hz, 59-FOLD free ETPC (17µM)): 100%
EADs percentage change compared to vehicle control (2Hz, 59-FOLD free ETPC (17µM)): 0%
ERP (average raw data) (2Hz, 59-FOLD free ETPC (17µM)): 0.41
ERP percentage change compared to vehicle control (2Hz, 59-FOLD free ETPC (17µM)): -7%
Max Dispersion (average raw data) (2Hz, 59-FOLD free ETPC (17µM)): 21.90
Max Dispersion percentage change compared to vehicle control (2Hz, 59-FOLD free ETPC (17µM)): 237%
RMP (average raw data) (2Hz, 59-FOLD free ETPC (17µM)): -74
RMP percentage change compared to vehicle control (2Hz, 59-FOLD free ETPC (17µM)): -6%
Refractoriness Escape percentage change compared to vehicle control (2Hz, 59-FOLD free ETPC (17µM)): 0%
STV (average raw data) (2Hz, 59-FOLD free ETPC (17µM)): 2.81
Triangulation (average raw data) (2Hz, 59-FOLD free ETPC (17µM)): 162
Triangulation percentage change compared to vehicle control (2Hz, 59-FOLD free ETPC (17µM)): 64%
Beat Escape (raw data) (2Hz, 59-FOLD free ETPC (17µM)): 4
EADs (raw data) (2Hz, 59-FOLD free ETPC (17µM)): 0
Refractoriness Escape (raw data) (2Hz, 59-FOLD free ETPC (17µM)): 0
TdP identification by pro-arrhythmic score (at 10-fold human free ETPC, score >10 unsafe, <10 safe): TdP positive
pro-arrhythmic score (at 100, 300, and 1,000 μM): above 40
pro-arrhythmic score (at therapeutic exposure): below 10
